Source: patent US11884671B2, “Purinone compounds and their use in treating cancer” (ASTRAZENECA AB, priority 2018, dated 2024)

Experiments:
JAK1 = JAK1 (Homo sapiens (Human), UniProt P23458); experiment: JAK1 enzyme assay (Z'-LYTE); type: biochemical; conditions: 75 μM ATP; arithmetic mean of two or more experiments
TTK = TTK (Homo sapiens (Human), UniProt P33981); experiment: TTK enzyme assay (LanthaScreen Eu Kinase Binding); conditions: arithmetic mean of two or more experiments
[1] = target: Full length human DNAPK protein (Homo sapiens (Human), UniProt P78527); experiment: DNAPK enzyme potency assay (DNA-PK enz), TR-FRET; type: biochemical; conditions: arithmetic mean of two or more experiments; 18 μM ATP
Description: The following assays were used to measure the effects of the compounds described herein: a) DNAPK enzyme potency assay; b) DNAPK cellular potency assay. During the description of the assays, generally: • i. The following abbreviations have been used; DMSO=Dimethyl Sulphoxide; DTT=Dithiothreitol; EDTA=Ethylenediaminetetraacetic Acid, TR-FRET=Time Resolved Fluorescence Resonance Energy Transfer, ATP=Adenosine triphosphate, DTT=Dithiothreitol, DNA=Deoxyribonucleic acid, HEPES=(2-hydroxyethyl)-1-piperazineethanesulfonic acid • ii. […] Assay a): DNAPK Enzyme Potency Assay (DNA-PK Enz)
The inhibitory activity of compounds against DNAPK was determined by TR-FRET measuring a fluorescent labelled peptide substrate converting to a phosphorylated product. Fluorescently tagged peptide substrate were purchased from Thermo Fisher Scientific. 12 point half-log compound concentration-response curves, with a top concentration of 100 μM were generated from 10 mM stocks of compound solubilised in DMSO using an Echo 555 (Labcyte Inc., Sunnyvale, CA). All assays were preformed in white Greiner 1536 well low volume plates (Greiner Bio-One, UK), in a total reaction volume of 3 μL and 1% (v/v) final DMSO concentration. Enzymes and substrates were added separately to the compound plates and incubated at room temperature. The kinase reaction was then quenched by the addition of 3 μL of stop buffer. Stopped assay plates were read using a BMG Pherastar. IC50 values were calculated using a Genedata Screener® software (Genedata, Inc., Basel, Switzerland).
Full length human DNAPK protein was purified from HeLa cell extract by ion exchange. Initially DNAPK protein was incubated with compound for 30 minutes at room temperature in reaction buffer (50 mM Hepes pH 7.5, 0.01% Brij-35, 10 mM MgCl2, 1 mM EGTA, 1 mM DTT, […] Calf Thymus DNA). The reaction was then initiated by the addition of ATP and fluorescently tagged peptide substrate (Fluorescein-[…], Thermo Fisher Scientific). […] The reaction was incubated for a further hour and the plates were read on a BMG Pherastar.
Data was analysed and IC50 values were calculated using Genedata Screener® software (Genedata, Inc., Basel, Switzerland).

Chain of TTK (P33981 whole entry): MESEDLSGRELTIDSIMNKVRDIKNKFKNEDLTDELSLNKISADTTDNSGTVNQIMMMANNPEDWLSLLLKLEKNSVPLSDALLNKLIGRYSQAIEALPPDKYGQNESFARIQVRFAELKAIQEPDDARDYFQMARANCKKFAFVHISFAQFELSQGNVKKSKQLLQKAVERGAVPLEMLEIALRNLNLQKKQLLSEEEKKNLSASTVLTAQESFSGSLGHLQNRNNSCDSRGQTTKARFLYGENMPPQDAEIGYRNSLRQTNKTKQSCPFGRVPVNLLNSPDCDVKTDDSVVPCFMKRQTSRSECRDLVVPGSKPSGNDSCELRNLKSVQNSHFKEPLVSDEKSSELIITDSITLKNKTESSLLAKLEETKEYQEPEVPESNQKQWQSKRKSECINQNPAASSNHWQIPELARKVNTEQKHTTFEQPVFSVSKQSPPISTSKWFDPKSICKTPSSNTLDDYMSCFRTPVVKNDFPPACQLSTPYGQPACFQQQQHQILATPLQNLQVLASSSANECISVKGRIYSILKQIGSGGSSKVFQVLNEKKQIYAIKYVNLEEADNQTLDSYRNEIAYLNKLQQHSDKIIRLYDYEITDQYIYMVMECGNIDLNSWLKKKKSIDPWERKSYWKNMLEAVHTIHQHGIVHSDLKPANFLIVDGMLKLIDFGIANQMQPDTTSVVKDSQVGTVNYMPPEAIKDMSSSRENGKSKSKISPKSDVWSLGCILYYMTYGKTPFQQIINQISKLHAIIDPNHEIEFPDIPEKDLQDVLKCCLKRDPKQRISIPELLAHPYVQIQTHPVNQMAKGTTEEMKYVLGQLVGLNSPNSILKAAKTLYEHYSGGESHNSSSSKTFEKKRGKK
Chain of JAK1 (P23458 whole entry): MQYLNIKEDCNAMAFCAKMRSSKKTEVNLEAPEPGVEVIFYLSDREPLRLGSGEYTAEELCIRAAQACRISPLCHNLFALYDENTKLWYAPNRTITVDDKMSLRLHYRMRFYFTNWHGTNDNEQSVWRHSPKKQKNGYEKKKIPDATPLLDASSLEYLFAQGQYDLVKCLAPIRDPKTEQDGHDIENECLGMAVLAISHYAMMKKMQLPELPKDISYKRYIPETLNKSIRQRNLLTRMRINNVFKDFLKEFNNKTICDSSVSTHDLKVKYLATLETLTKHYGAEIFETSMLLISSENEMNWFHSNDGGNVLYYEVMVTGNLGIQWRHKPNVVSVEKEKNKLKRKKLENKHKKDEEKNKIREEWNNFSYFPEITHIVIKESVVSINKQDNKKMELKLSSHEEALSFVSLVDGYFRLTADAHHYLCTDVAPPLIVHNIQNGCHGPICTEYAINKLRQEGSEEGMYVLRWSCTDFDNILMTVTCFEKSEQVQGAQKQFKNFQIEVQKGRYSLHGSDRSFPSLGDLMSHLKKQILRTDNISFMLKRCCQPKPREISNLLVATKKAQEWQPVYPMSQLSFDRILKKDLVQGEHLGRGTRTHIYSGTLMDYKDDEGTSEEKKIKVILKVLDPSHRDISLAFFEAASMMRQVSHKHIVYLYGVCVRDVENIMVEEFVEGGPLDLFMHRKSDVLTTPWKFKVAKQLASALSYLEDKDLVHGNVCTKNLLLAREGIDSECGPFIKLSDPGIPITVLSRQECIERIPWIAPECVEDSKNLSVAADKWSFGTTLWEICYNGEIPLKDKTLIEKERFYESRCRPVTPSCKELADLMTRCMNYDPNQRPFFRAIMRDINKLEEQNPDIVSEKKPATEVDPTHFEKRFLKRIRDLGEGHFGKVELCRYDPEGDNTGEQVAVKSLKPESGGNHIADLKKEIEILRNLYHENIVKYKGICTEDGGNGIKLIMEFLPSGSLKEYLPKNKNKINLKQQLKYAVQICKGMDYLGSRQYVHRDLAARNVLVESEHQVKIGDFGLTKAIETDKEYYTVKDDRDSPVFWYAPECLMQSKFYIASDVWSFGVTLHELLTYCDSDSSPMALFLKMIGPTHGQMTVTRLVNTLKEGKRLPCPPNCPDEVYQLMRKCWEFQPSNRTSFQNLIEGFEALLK

SMILES	JAK1 enz pIC50 (JAK1)	TTK enz pIC50 (TTK)	DNA-PK enz pIC50 [1]
Cc1cc2ncccc2cc1Nc1ncc2c(n1)n([C@H]1CC[C@H](O)CC1)c(=O)n2C [Example 6, 9-((1r,4r)-4-hydroxycyclohexyl)-7-methyl-2-((7-methylquinolin-6-yl)amino)-7,9-dihydro-8H-purin-8-one]	<5	7.2	>10
COc1ccnc2cc(C)c(Nc3ncc4c(n3)n([C@H]3CC[C@H](O)CC3)c(=O)n4C)cc12 [Example 9, 9-((1r,4r)-4-hydroxycyclohexyl)-2-((4-methoxy-7-methylquinolin-6-yl)amino)-7-methyl-7,9-dihydro-8H-purin-8-one]	<5	6.1	>10
Cc1cc2ncccc2cc1Nc1ncc2c(n1)n(C1COC1)c(=O)n2C [Example 36, 7-methyl-2-((7-methylquinolin-6-yl)amino)-9-(oxetan-3-yl)-7,9-dihydro-8H-purin-8-one]	<5	6.0	9.7
CC(=O)N1CCC(n2c(=O)n(C)c3cnc(Nc4cc5nc(C)cnc5cc4C)nc32)CC1 [Example 5, 9-(1-acetylpiperidin-4-yl)-2-((3,7-dimethylquinoxalin-6-yl)amino)-7-methyl-7,9-dihydro-8H-purin-8-one]	<5	5.3	9.1
Cc1cc2nnccc2cc1Nc1ncc2c(n1)n([C@H]1CCCOC1)c(=O)n2C [Example 27, (S)-7-methyl-2-((7-methylcinnolin-6-yl)amino)-9-(tetrahydro-2H-pyran-3-yl)-7,9-dihydro-8H-purin-8-one]	<5	6.4	>10
CC(=O)N1CCC(n2c(=O)n(C)c3cnc(Nc4cc5ncc(C)nc5cc4C)nc32)CC1 [Example 4, 9-(1-acetylpiperidin-4-yl)-2-((2,7-dimethylquinoxalin-6-yl)amino)-7-methyl-7,9-dihydro-8H-purin-8-one]	<5	6.0	9.0
COCCN1CCC(n2c(=O)n(C)c3cnc(Nc4cc5cccnc5cc4C)nc32)CC1 [Example 49, 9-(1-(2-methoxyethyl)piperidin-4-yl)-7-methyl-2-((7-methylquinolin-6-yl)amino)-7,9-dihydro-8H-purin-8-one]	<5	5.7	8.8
Cc1cc2ncccc2cc1Nc1ncc2c(n1)n(C1CCN(C3COC3)CC1)c(=O)n2C [Example 47, 7-methyl-2-((7-methylquinolin-6-yl)amino)-9-(1-(oxetan-3-yl)piperidin-4-yl)-7,9-dihydro-8H-purin-8-one]	<5	5.8	9.0
CC(=O)N1CCC(n2c(=O)n(C)c3cnc(Nc4cc5ccnnc5cc4C)nc32)CC1 [Example 1, 9-(1-acetylpiperidin-4-yl)-7-methyl-2-((7-methylcinnolin-6-yl)amino)-7,9-dihydro-8H-purin-8-one]	<5	5.9	10.0
